# US10543195B2, “Peptides for skin rejuvenation and methods of using the same” (Anteis SA, priority 2013, dated 2020)
# * marks the point of attachment. Palmitoyl = CCCCCCCCCCCCCCCC(=O)*
# What was measured:
# hyaluronic acid [1] = assay: Hyaluronic acid ELISA in culture supernatant of NHDF; format: cell-based, human; conditions: 72 h
# Description: For the interpretation of the data related to the stimulation of the formation of extracellular matrix components as determined during the in vitro experiments, a “significant” stimulation of the formation of extracellular matrix components means a stimulation of at least 20% more than measured using a control material under identical experimental conditions. The control material is the identical material (here: assay medium) as used when testing the active (here: peptide(s)) but without the active(s).
# Normal human dermal fibroblasts (NHDF); used at the 8th passage, were cultured in culture medium (DMEM supplemented with 10% fetal calf serum, 2 mM L-glutamine, 50 U/ml penicillin, and 50 μg/ml streptomycin) in 96-well plates for 24 h at 37° C. and 5% CO2.
# Afterwards, the culture medium was removed and replaced by assay medium (DMEM culture medium supplemented with 2% fetal calf serum, 2 mM L-glutamine, 50 U/ml penicillin, and 50 μg/ml streptomycin) containing the test peptides or not (control). The cells were then incubated for 72 h. All experimental conditions were performed 3-times (n=3). At the end of the incubation, culture supernatants were collected and immediately frozen at about −80° C.
# Hyaluronic acid was quantified in the culture supernatant using the Duoset Hylaluronan ELISA kit (R&D Systems Ref. DY3614, 0.37 ng/ml as low detection limit) according to the provider's specifications.
# This evaluation was realized with non-cytotoxic concentrations of the test peptides. Cytotoxicity of the test peptides in the assay medium was previously determined in NHDF by the MTT reduction assay and morphological observations with help of microscope after a 72 h incubation time.
# hyaluronic acid [2] = conditions: oil-in-water vehicle containing 50 ppm GEKG for sixty days; cited from earlier work
# collagen I = conditions: ELISA, normal human dermal fibroblasts; cited from earlier work
# collagen III = conditions: immunofluorescence, normal human dermal fibroblasts; cited from earlier work
# collagen I (alpha 1) = assay: RT-qPCR gene expression in NHDF: collagen I (alpha 1); format: cell-based, human; conditions: 24 h, vs control; for stimulation of formation of collagen I (alpha 1) (mRNA, RT-qPCR): 300 ppm (0.03%)
# Protocol: (§1) Normal human dermal fibroblasts (NHDF); used at the 8th passage, were cultured in culture medium (DMEM supplemented with 10% fetal calf serum, 2 mM L-glutamine, 50 U/ml penicillin, and 50 μg/ml streptomycin) in 24-well plates for 48 h at 37° C. and 5% CO2 with a renewal of culture medium after 24 h. The culture medium was then removed, replaced by assay medium (DMEM culture medium supplemented with 1% fetal calf serum, 2 mM L-glutamine, 50 U/ml penicillin, and 50 μg/ml streptomycin) and the cells were further incubated for 24 h. The cells were then treated with the test peptides, or not (control), or with the reference TGF-beta 1 and incubated for 24 h. All experimental conditions were performed 4-times (n=4). At the end of the incubation, the cells were washed in PBS solution and immediately frozen at about −80° C. The expression of the markers was analyzed using quantitative real time polymerase chain reaction (RT-qPCR) method on mRNA extracted from the cell monolayers for each treatment; whereby the replicates were pooled before RNA extraction. Analysis of gene expression was performed in duplicate (n=2) using a PCR array. Total RNA was extracted from each sample using TriPure Isolation Reagent® according to the supplier's instructions. The amount and quality of RNA were evaluated using a lab-on-a-chip Bioanalyzer (Agilent Technologies). […] Quantification of cDNA was performed using Nanovue (GE Healthcare) and cDNA was adjusted. […]
# (§2) The incorporation of the fluorescence in amplified DNA was continuously measured during the PCR cycles. […] The value selected for RE calculations is the “output point” (Ct) of the fluorescence curve. For a considered marker, the highest is the cycle number; the lowest is the mRNA quantity. […]
# (§3) This evaluation was realized with non-cytotoxic concentrations of the test peptides. Cytotoxicity of the test peptides in the assay medium was previously determined in NHDF by the MTT reduction assay and morphological observations with help of microscope after a 24 h incubation time. […]
# collagen III (alpha 1) = assay: RT-qPCR gene expression in NHDF: collagen III (alpha 1); format: cell-based, human; conditions: 24 h, vs control; for stimulation of formation of collagen III (alpha 1) (mRNA, RT-qPCR): 300 ppm (0.03%)
# Protocol: as §1, §2, §3
# rat experimental wounds = conditions: cited from earlier work
# collagen V (alpha 1) = assay: RT-qPCR gene expression in NHDF: collagen V (alpha 1); format: cell-based, human; conditions: 300 ppm (0.03%), 24 h, vs control
# Protocol: as §1, with “All experimental conditions were performed 4-times (n=4). At the end of the incubation, the cells were washed in PBS solution and immediately frozen at about −80° C.” left out, “Analysis of gene expression was performed in duplicate (n=2) using a PCR array. Total RNA was extracted from each sample using TriPure Isolation Reagent® according to the supplier's instructions.” left out
# as §2
# laminin (alpha 4) = assay: RT-qPCR gene expression in NHDF: laminin (alpha 4); format: cell-based, human; conditions: 300 ppm (0.03%), 24 h, vs control
# Protocol: as §1, with “All experimental conditions were performed 4-times (n=4). At the end of the incubation, the cells were washed in PBS solution and immediately frozen at about −80° C.” left out, “Analysis of gene expression was performed in duplicate (n=2) using a PCR array. Total RNA was extracted from each sample using TriPure Isolation Reagent® according to the supplier's instructions.” left out
# as §2
# fibrillin 1 = assay: RT-qPCR gene expression in NHDF: fibrillin 1; format: cell-based, human; conditions: 300 ppm (0.03%), 24 h, vs control
# Protocol: as §1, with “All experimental conditions were performed 4-times (n=4). At the end of the incubation, the cells were washed in PBS solution and immediately frozen at about −80° C.” left out, “Analysis of gene expression was performed in duplicate (n=2) using a PCR array. Total RNA was extracted from each sample using TriPure Isolation Reagent® according to the supplier's instructions.” left out
# as §2
# elastin = assay: RT-qPCR gene expression in NHDF: elastin; format: cell-based, human; conditions: 300 ppm (0.03%), 24 h, vs control
# Protocol: as §1, with “All experimental conditions were performed 4-times (n=4). At the end of the incubation, the cells were washed in PBS solution and immediately frozen at about −80° C.” left out, “Analysis of gene expression was performed in duplicate (n=2) using a PCR array. Total RNA was extracted from each sample using TriPure Isolation Reagent® according to the supplier's instructions.” left out
# as §2
# collagen VII (alpha 1) = assay: RT-qPCR gene expression in NHDF: collagen VII (alpha 1); format: cell-based, human; conditions: 300 ppm (0.03%), 24 h, vs control
# Protocol: as §1, with “All experimental conditions were performed 4-times (n=4). At the end of the incubation, the cells were washed in PBS solution and immediately frozen at about −80° C.” left out, “Analysis of gene expression was performed in duplicate (n=2) using a PCR array. Total RNA was extracted from each sample using TriPure Isolation Reagent® according to the supplier's instructions.” left out
# as §2
# collagen VI (alpha 1) = assay: RT-qPCR gene expression in NHDF: collagen VI (alpha 1); format: cell-based, human; conditions: 300 ppm (0.03%), 24 h, vs control
# Protocol: as §1, with “All experimental conditions were performed 4-times (n=4). At the end of the incubation, the cells were washed in PBS solution and immediately frozen at about −80° C.” left out, “Analysis of gene expression was performed in duplicate (n=2) using a PCR array. Total RNA was extracted from each sample using TriPure Isolation Reagent® according to the supplier's instructions.” left out
# as §2
# [3] = system: heparan sulfate protoglycan 2; assay: RT-qPCR gene expression in NHDF: heparan sulfate protoglycan 2; format: cell-based, human; conditions: 300 ppm (0.03%), 24 h, vs control
# Protocol: as §1, with “All experimental conditions were performed 4-times (n=4). At the end of the incubation, the cells were washed in PBS solution and immediately frozen at about −80° C.” left out, “Analysis of gene expression was performed in duplicate (n=2) using a PCR array. Total RNA was extracted from each sample using TriPure Isolation Reagent® according to the supplier's instructions.” left out
# as §2
# collagen XVI (alpha 1) = assay: RT-qPCR gene expression in NHDF: collagen XVI (alpha 1); format: cell-based, human; conditions: 300 ppm (0.03%), 24 h, vs control
# Protocol: as §1, with “All experimental conditions were performed 4-times (n=4). At the end of the incubation, the cells were washed in PBS solution and immediately frozen at about −80° C.” left out, “Analysis of gene expression was performed in duplicate (n=2) using a PCR array. Total RNA was extracted from each sample using TriPure Isolation Reagent® according to the supplier's instructions.” left out
# as §2
# hyaluronan synthase 2 = assay: RT-qPCR gene expression in NHDF: hyaluronan synthase 2; format: cell-based, human; conditions: 300 ppm (0.03%), 24 h, vs control
# Protocol: as §1, with “All experimental conditions were performed 4-times (n=4). At the end of the incubation, the cells were washed in PBS solution and immediately frozen at about −80° C.” left out, “Analysis of gene expression was performed in duplicate (n=2) using a PCR array. Total RNA was extracted from each sample using TriPure Isolation Reagent® according to the supplier's instructions.” left out
# as §2
# human skin explants = conditions: 3H-proline-incorporation; cited from earlier work
compound,measurement,setting,value
NH2-Gly-Glu-Lys-Gly-OH (H-GEKG-OH),stimulation of synthesis of hyaluronic acid,hyaluronic acid [1]; alone at 100 or 300 ppm,up to 25%
same,hyaluronic acid formation,hyaluronic acid [2],stimulate hyaluronic acid formation
palmitoyl-KMO2K—OH,increase of collagen I formation,collagen I,111%
same,increase of collagen III formation,collagen III,104%
TGF-beta 1: reference TGF-beta 1 (10 ng/ml) in the gene expression test,"stimulation of formation of collagen I (mRNA, RT-qPCR)",collagen I (alpha 1); 10 ng/ml,245%
same,"stimulation of formation of collagen III (mRNA, RT-qPCR)",collagen III (alpha 1); 10 ng/ml,164%
GHK-Cu,collagen accumulation,rat experimental wounds,statistical significant increase of collagen accumulation
"CCCCCCCC(=O)NCCC(=O)NC(Cc1cnc[nH]1)C(=O)O (stereo not drawn) [Octanoyl Carnosine, Octanoyl-beta-Ala-His-OH]","stimulation of formation of collagen V (alpha 1) (mRNA, RT-qPCR)",collagen V (alpha 1),35%
same,"stimulation of formation of laminin (alpha 4) (mRNA, RT-qPCR)",laminin (alpha 4),20%
same,"stimulation of formation of collagen I (alpha 1) (mRNA, RT-qPCR)",collagen I (alpha 1),38%
same,"stimulation of formation of fibrillin 1 (mRNA, RT-qPCR)",fibrillin 1,23%
same,stimulation of synthesis of hyaluronic acid,hyaluronic acid [1]; alone at 100 pm,−5%
same,"stimulation of formation of elastin (mRNA, RT-qPCR)",elastin,51%
same,"stimulation of formation of collagen III (alpha 1) (mRNA, RT-qPCR)",collagen III (alpha 1),120%
same,"stimulation of formation of collagen VII (alpha 1) (mRNA, RT-qPCR)",collagen VII (alpha 1),97%
same,"stimulation of formation of collagen VI (alpha 1) (mRNA, RT-qPCR)",collagen VI (alpha 1),46%
same,"stimulation of formation of heparan sulfate protoglycan 2 (mRNA, RT-qPCR)",[3],79%
same,"stimulation of formation of collagen XVI (alpha 1) (mRNA, RT-qPCR)",collagen XVI (alpha 1),91%
same,"stimulation of formation of hyaluronan synthase 2 (mRNA, RT-qPCR)",hyaluronan synthase 2,23%
Palmitoyl-Gly-His-Lys-OH [Palmitoyl-GHK],stimulation of synthesis of hyaluronic acid,hyaluronic acid [1]; alone at 10 or 30 ppm,up to 11%
same,increase of collagen synthesis,human skin explants,up to 75.3%
Gly-His-Lys [GHK],collagen accumulation,rat experimental wounds,no effect
NCCC(=O)N[C@@H](Cc1cnc[nH]1)C(=O)O [beta-alanyl-histidine],"stimulation of formation of collagen I (alpha 1) (mRNA, RT-qPCR)",collagen I (alpha 1),28%
same,"stimulation of formation of collagen III (alpha 1) (mRNA, RT-qPCR)",collagen III (alpha 1),24%
